Test results: ChEMBL document CHEMBL4507270 (2021); call rule not given here

What was measured:
[1] = target: GABA-A receptor; anion channel (Rattus norvegicus) (UniProt O09028+P15431+P18506+P18508+P19969+P20236+P23574+P23576+P28471+P28473+P30191+P62813+P63079+P63138+Q91ZM7+Q9ES14); details: Compound concentration 10.0 uM
[2] = target: Alpha-1A adrenergic receptor (Homo sapiens) (UniProt P35348); details: Compound concentration 10.0 uM
[3] = target: Serine/threonine-protein kinase D3 (Homo sapiens) (UniProt O94806)
[4] = target: Macrophage colony-stimulating factor 1 receptor (Homo sapiens) (UniProt P07333)
[5] = test system: Tyrosine-protein kinase ABL1 (Homo sapiens), P00519 [Q252H]
[6] = target: Aurora kinase C (Homo sapiens) (UniProt Q9UQB9)
Chain of Aurora kinase C (Homo sapiens) (Q9UQB9 whole entry): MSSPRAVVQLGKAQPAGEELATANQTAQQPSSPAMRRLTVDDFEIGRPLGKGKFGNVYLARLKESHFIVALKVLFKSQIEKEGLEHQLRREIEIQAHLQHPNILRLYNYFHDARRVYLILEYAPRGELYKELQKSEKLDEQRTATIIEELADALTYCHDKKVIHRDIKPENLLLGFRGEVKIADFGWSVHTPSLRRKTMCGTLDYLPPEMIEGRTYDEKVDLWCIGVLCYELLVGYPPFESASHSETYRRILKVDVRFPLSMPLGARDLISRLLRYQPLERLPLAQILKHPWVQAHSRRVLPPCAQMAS

[7] = target: Cyclin-G-associated kinase (Homo sapiens) (UniProt O14976)
[8] = target: 5-hydroxytryptamine receptor 1B (Homo sapiens) (UniProt P28222); details: Compound concentration 10.0 uM
Chain of 5-hydroxytryptamine receptor 1B (Homo sapiens) (P28222 whole entry): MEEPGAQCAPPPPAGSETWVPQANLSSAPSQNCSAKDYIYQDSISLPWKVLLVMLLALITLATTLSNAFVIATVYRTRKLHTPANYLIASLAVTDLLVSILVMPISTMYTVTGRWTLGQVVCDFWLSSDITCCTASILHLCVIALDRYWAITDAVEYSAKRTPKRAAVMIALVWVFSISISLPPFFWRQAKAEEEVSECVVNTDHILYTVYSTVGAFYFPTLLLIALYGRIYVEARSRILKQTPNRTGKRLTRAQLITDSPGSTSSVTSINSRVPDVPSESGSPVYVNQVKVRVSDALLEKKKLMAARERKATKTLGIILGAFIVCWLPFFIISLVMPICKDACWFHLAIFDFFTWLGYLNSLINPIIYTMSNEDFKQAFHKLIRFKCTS

[9] = target: Serine/threonine-protein kinase 4 (Homo sapiens) (UniProt Q13043)
Chain of Serine/threonine-protein kinase 4 (Homo sapiens) (Q13043 whole entry, canonical isoform): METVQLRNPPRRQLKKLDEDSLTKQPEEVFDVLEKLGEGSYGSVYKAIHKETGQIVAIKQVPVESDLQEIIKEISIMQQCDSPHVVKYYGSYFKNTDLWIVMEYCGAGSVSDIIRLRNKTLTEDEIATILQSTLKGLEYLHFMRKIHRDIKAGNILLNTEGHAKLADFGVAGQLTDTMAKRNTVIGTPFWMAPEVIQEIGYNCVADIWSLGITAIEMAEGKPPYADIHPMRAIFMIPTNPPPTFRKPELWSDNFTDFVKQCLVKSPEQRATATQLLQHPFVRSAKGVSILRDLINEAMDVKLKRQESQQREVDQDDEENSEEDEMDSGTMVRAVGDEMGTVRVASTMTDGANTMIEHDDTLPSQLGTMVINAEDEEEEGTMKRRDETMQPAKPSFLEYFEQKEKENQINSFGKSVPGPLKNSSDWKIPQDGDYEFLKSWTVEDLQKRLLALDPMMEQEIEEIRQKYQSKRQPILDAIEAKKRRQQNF

[10] = test system: Phosphatidylinositol 4,5-bisphosphate 3-kinase catalytic subunit alpha isoform (Homo sapiens), P42336 [C420R]
[11] = target: Ribosomal protein S6 kinase alpha-5 (Homo sapiens) (UniProt O75582)
[12] = target: Serine/threonine-protein kinase Nek2 (Homo sapiens) (UniProt P51955)
[13] = target: 5-hydroxytryptamine receptor 1A (Homo sapiens) (UniProt P08908); details: Compound concentration 10.0 uM
[14] = target: Ephrin type-A receptor 5 (Homo sapiens) (UniProt P54756)
[15] = target: Uncharacterized serine/threonine-protein kinase SBK3 (Homo sapiens) (UniProt P0C264)
[16] = target: Serine/threonine-protein kinase WNK3 (Homo sapiens) (UniProt Q9BYP7)
[17] = target: Dual specificity mitogen-activated protein kinase kinase 6 (Homo sapiens) (UniProt P52564)
Chain of Dual specificity mitogen-activated protein kinase kinase 6 (Homo sapiens) (P52564 whole entry): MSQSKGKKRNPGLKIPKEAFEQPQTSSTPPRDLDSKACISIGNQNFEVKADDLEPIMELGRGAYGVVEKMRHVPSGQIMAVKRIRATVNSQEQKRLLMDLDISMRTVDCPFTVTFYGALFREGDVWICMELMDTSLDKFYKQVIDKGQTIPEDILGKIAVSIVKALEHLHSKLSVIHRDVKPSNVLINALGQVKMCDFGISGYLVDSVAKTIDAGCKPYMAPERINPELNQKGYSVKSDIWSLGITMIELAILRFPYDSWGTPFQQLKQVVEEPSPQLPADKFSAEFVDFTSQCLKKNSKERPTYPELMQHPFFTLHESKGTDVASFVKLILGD

[18] = target: Ribosomal protein S6 kinase beta-1 (Homo sapiens) (UniProt P23443)
Chain of Ribosomal protein S6 kinase beta-1 (Homo sapiens) (P23443 whole entry, looked up): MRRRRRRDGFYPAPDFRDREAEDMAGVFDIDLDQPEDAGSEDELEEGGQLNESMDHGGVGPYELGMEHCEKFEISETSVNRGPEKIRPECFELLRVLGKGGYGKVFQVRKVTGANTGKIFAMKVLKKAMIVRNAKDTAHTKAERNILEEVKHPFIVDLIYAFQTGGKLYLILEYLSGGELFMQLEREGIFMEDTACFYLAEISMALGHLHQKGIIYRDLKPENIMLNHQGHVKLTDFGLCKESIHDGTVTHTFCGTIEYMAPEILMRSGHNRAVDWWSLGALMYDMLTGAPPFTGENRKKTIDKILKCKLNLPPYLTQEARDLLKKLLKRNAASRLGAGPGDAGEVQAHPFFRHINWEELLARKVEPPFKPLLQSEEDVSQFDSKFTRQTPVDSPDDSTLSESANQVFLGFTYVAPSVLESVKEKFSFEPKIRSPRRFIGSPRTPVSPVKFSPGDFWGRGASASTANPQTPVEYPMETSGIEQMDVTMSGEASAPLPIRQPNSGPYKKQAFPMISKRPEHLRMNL

[19] = target: Ephrin type-A receptor 4 (Homo sapiens) (UniProt P54764)
[20] = test system: Epidermal growth factor receptor (Homo sapiens), P00533 [L858R,T790M]
[21] = test system: Phosphatidylinositol 4,5-bisphosphate 3-kinase catalytic subunit alpha isoform (Homo sapiens), P42336 [I800L]
[22] = target: Delta-type opioid receptor (Homo sapiens, UniProt P41143); details: Compound concentration 10.0 uM
Chain of Delta-type opioid receptor (P41143 whole entry): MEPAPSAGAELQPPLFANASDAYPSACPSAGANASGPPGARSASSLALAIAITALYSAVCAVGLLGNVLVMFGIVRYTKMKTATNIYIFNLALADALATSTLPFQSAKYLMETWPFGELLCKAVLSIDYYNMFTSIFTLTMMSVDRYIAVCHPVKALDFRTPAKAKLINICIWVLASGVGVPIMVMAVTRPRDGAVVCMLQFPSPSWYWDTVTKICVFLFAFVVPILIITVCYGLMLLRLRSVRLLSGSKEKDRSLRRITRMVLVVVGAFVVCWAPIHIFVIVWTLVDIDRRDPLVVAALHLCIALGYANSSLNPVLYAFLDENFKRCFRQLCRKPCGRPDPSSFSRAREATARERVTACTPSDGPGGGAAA

[23] = target: Tyrosine-protein kinase HCK (Homo sapiens) (UniProt P08631)
Chain of Tyrosine-protein kinase HCK (Homo sapiens) (P08631 2-526 limits assumed): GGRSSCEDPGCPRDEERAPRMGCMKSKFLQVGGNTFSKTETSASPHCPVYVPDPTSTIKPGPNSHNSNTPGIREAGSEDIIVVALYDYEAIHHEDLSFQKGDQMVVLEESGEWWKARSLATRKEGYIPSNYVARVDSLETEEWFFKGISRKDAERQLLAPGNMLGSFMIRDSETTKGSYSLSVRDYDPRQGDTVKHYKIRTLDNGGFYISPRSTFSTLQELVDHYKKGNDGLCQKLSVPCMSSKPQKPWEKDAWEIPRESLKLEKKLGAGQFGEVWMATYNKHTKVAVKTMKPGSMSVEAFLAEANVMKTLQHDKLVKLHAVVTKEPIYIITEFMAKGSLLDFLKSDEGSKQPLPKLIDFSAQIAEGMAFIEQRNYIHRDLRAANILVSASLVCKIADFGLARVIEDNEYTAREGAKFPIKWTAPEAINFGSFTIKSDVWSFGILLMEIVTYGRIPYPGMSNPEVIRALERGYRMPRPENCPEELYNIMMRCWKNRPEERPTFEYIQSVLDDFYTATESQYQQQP

[24] = target: Mitogen-activated protein kinase kinase kinase 7 (Homo sapiens) (UniProt O43318)
[25] = target: 1-phosphatidylinositol 3-phosphate 5-kinase (Homo sapiens) (UniProt Q9Y2I7)
Chain of 1-phosphatidylinositol 3-phosphate 5-kinase (Homo sapiens) (Q9Y2I7 whole entry): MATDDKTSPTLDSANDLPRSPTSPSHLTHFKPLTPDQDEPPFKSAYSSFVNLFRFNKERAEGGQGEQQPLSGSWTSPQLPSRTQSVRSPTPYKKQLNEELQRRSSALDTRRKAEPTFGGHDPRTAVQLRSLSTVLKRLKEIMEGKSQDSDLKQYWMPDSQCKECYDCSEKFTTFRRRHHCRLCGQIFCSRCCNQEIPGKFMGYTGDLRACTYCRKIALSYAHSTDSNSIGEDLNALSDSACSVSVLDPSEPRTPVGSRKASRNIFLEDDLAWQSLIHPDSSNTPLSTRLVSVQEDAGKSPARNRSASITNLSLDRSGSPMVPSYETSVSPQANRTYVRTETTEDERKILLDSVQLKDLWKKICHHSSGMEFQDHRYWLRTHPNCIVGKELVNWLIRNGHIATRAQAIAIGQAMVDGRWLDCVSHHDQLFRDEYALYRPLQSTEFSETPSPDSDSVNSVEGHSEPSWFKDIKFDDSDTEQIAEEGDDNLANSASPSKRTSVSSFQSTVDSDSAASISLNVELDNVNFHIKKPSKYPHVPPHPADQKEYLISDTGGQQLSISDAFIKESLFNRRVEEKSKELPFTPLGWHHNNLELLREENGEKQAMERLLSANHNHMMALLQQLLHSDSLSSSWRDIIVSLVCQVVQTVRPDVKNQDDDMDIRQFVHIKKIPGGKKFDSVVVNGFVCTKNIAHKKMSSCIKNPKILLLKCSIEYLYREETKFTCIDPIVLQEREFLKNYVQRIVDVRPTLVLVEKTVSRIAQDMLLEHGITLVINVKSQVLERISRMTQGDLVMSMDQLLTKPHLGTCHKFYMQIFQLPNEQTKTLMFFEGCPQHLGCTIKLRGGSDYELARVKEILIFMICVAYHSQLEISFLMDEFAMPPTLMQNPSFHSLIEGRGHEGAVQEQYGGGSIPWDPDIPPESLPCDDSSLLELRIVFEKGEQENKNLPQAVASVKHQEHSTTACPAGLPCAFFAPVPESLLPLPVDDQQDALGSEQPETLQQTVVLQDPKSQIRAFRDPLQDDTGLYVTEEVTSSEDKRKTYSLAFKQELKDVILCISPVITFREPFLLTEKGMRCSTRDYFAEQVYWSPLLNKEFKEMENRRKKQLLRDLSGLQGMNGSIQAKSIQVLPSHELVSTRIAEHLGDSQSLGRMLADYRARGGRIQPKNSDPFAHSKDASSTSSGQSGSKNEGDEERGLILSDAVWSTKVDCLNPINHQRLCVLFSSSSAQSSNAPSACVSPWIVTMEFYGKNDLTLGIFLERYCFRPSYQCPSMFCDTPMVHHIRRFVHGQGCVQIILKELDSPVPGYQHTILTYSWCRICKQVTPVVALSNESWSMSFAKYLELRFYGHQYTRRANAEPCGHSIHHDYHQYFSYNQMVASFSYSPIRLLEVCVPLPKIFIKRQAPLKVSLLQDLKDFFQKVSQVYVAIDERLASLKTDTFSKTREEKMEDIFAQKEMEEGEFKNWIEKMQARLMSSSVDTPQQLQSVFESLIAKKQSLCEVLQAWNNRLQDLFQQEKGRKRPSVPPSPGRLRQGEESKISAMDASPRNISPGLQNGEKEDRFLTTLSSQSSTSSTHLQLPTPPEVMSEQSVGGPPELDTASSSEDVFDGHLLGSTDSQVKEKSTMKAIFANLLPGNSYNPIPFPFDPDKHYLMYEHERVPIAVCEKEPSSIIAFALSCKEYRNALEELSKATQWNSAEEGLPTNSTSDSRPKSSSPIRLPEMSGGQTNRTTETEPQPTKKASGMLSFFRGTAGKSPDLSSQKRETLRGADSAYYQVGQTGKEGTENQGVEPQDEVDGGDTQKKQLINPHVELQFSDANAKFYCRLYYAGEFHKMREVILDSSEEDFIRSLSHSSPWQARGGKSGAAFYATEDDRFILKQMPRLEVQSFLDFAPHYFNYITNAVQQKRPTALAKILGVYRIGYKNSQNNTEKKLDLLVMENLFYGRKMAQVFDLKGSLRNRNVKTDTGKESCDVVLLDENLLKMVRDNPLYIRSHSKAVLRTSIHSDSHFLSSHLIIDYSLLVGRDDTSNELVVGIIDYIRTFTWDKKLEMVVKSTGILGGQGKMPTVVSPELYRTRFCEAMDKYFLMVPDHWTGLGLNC

[26] = test system: Hepatocyte growth factor receptor (Homo sapiens), P08581 [Y1235D]
[27] = target: Serine/threonine-protein kinase TAO2 (Homo sapiens) (UniProt Q9UL54)
[28] = target: Macrophage-stimulating protein receptor (Homo sapiens) (UniProt Q04912)
[29] = target: Serine/threonine-protein kinase D1 (Homo sapiens) (UniProt Q15139)
Ephrin type-B receptor 6 = target: T1, Ephrin type-B receptor 6 (Homo sapiens, UniProt O15197); test: NanoBRET assay (SGC Frankfurt) with EPHB6
T1 sequence (O15197 whole entry): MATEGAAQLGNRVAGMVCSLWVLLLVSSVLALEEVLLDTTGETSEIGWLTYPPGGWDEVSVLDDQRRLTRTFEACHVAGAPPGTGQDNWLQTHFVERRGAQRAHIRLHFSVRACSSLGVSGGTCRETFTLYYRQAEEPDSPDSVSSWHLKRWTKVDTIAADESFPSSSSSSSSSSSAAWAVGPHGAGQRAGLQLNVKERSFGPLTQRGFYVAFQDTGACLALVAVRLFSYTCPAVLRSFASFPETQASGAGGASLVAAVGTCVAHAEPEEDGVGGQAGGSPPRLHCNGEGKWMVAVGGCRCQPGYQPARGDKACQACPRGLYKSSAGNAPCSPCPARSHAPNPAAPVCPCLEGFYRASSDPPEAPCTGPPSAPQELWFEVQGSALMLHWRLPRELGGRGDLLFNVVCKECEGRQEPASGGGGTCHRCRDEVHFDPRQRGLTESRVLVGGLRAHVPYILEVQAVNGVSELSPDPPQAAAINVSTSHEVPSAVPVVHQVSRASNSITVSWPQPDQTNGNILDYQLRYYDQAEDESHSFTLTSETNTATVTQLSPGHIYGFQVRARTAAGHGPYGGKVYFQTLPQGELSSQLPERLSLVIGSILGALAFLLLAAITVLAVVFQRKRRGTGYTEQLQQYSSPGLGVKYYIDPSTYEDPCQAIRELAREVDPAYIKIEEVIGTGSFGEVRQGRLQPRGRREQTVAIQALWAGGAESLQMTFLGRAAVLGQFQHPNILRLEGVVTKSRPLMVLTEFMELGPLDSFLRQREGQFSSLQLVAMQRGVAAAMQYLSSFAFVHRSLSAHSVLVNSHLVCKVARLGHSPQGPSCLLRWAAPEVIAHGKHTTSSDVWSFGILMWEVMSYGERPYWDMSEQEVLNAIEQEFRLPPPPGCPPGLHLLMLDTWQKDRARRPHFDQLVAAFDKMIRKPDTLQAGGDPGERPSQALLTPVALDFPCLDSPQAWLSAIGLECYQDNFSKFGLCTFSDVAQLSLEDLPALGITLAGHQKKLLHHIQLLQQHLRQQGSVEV

[30] = Compound concentration 100.0 nM
[31] = Compound concentration 1000.0 nM

For `Cc1cc(C)c(-n2ccn3nc(-c4cccnc4)cc23)cc1NC(=O)c1cc(C#N)cc(S(F)(F)(F)(F)F)c1` [BAY-826], the inhibition [1] was -6.93%, the inhibition [2] was -3.02% and the residual activity [3, 30] was 97%. It also gave a residual activity [4, 30] of 92.9%, a residual activity [5, 30] of 31.4% and a residual activity [6, 30] of 100%. For the same compound, the residual activity [7, 30] was 83.3%, the inhibition [8] was 14.4% and the residual activity [9, 30] was 88.5%. The residual activity [10, 30] was 85.4%, the residual activity [11, 30] was 100% and the residual activity [12, 30] was 98.6%. For the same compound, the inhibition [13] was -6.68%, the residual activity [14, 30] was 92.4% and the residual activity [15, 30] was 100%. The residual activity [16, 30] was 61.9%, the residual activity [17, 30] was 100% and the residual activity [18, 30] was 93%. It also gave a residual activity [19, 30] of 100%, a residual activity [20, 30] of 100% and a residual activity [21, 30] of 92.8%. It also gave an inhibition [22] of 18.7%, a residual activity [23, 30] of 72.1% and a residual activity [24, 30] of 66.2%. It also gave a residual activity [25, 30] of 74.9%, a residual activity [26, 30] of 93.4% and a residual activity [27, 30] of 48.2%. For the same compound, the residual activity [28, 30] was 75.6%, the residual activity [29, 30] was 81.2% and the EC50 (Ephrin type-B receptor 6) was 12 µM (not active). The IC50 (Ephrin type-B receptor 6) was 3.9 µM (not active).

`Cc1cc(NC(=O)c2cccc(S(F)(F)(F)(F)F)c2)cc(-n2ccn3nc(-c4cccnc4)cc23)c1` [BAY-309] gave an inhibition [1] of -4.43%, an inhibition [2] of 5.89% and a residual activity [3, 31] of 100%. The residual activity [4, 31] was 89%, the residual activity [5, 31] was 49.2% and the residual activity [6, 31] was 86.7%. For the same compound, the residual activity [7, 31] was 100%, the inhibition [8] was 36.8% and the residual activity [9, 31] was 100%. For the same compound, the residual activity [10, 31] was 97.1%, the residual activity [11, 31] was 100% and the residual activity [12, 31] was 90.8%. It also gave an inhibition [13] of 39.9%, a residual activity [14, 31] of 100% and a residual activity [15, 31] of 100%. The residual activity [16, 31] was 100%, the residual activity [17, 31] was 100% and the residual activity [18, 31] was 66.2%. For the same compound, the residual activity [19, 31] was 76%, the residual activity [20, 31] was 97.6% and the residual activity [21, 31] was 96%. The inhibition [22] was 58.5%, the residual activity [23, 31] was 98.7% and the residual activity [24, 31] was 100%. For the same compound, the residual activity [25, 31] was 100%, the residual activity [26, 31] was 100% and the residual activity [27, 31] was 91.3%. For the same compound, the residual activity [28, 31] was 71%, the residual activity [29, 31] was 100% and the EC50 (Ephrin type-B receptor 6) was 27 µM (not active). The IC50 (Ephrin type-B receptor 6) was 11 µM (not active).
